Laboratory results taken from paper PMC6696278 (International Journal of Molecular Sciences, 2019).

Key:
Type in all cases: binding
[1] = target: T1, human galectin-9C (C-terminal domain) (Homo sapiens, UniProt O00182); experiment: competitive fluorescence polarization assay, galectin-9C; settings: PBS
T1 construct: 4N (N-terminal domain) 4C (C-terminal domain), 7, 8N, 8C, 9N, and 9C; made in house
Text: (§1) Human galectin-1 [25], galectin-2 [26], galectin-3 [27], galectin-4N [19], galectin-4C [19], galectin-8N [28], galectin-8C [28], galectin-9N [29], and galectin-9C [30], were expressed and purified as described earlier. Human galectin-7 was expressed using a pET3c plasmid in E. coli BL21-star. The plasmid containing expression optimized DNA encoding the full human galectin-7 sequence (NCBI Reference Sequence: NP_002298.1) was obtained from GenScript (Piscataway, NJ, USA). […] Lactose was removed by chromatography on a PD-10 column (Amersham Biosciences) with repeated ultrafiltration with Centriprep (Amicon).
(§2) Fluorescence polarization experiments were carried out either with a POLARStar plate reader and FLUOstar Galaxy software or with a PheraStarFS plate reader and PHERAstar Mars version 2.10 R3 software (BMG, Offenburg, Germany). The dissociation constant (Kd) values were determined in PBS as described earlier. Specific conditions for galectin-1, 2, 3, 4N, 4C, 8N, 8C, 9N, and 9C were kept as reported. Experiments were performed at room temperature with human galectin-7 at 5 µM and the fluorescent probe β-D-galactopyranosyl-(1–4)-2-acetamido-2-deoxy-β-d-glucopyranosyl-(1–3)-β-d-galactopyranosyl-(1–4)-(N1-fluorescein-5-yl-carbonylaminomethylcarbonyl)-β-D-glucopyranosylamine at 0.02 µM. All the compounds in Table 1 except 32 were dissolved in a neat DMSO at 100 mM and diluted in PBS to three to six different concentrations to be tested in duplicate.

human galectin-7 = target: T2, human galectin-7 (Homo sapiens, UniProt P47929); experiment: competitive fluorescence polarization assay, galectin-7; settings: average and SEM, PBS, room temperature, galectin-7 at 5 µM, probe 0.02 µM
T2 construct: made in house; host or cells: E. coli BL21-star, pET3c plasmid (DNA from GenScript)
T2 sequence (P47929 whole entry): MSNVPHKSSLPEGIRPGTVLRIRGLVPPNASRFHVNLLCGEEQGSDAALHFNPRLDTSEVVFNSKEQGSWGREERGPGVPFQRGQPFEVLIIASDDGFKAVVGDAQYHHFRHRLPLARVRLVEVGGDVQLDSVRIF
Text: (§3) Human galectin-1 [25], galectin-2 [26], galectin-3 [27], galectin-4N [19], galectin-4C [19], galectin-8N [28], galectin-8C [28], galectin-9N [29], and galectin-9C [30], were expressed and purified as described earlier. Human galectin-7 was expressed using a pET3c plasmid in E. coli BL21-star. The plasmid containing expression optimized DNA encoding the full human galectin-7 sequence (NCBI Reference Sequence: NP_002298.1) was obtained from GenScript (Piscataway, NJ, USA). Bacterial culture and induction, and galectin purification was essential as described for galectin-3 expressed with the same vector [27]; a typical yield was 1.5–2 mg/L culture. Lactose was removed by chromatography on a PD-10 column (Amersham Biosciences) with repeated ultrafiltration with Centriprep (Amicon).
as §2

[2] = target: T3, human galectin-8N (N-terminal domain) (Homo sapiens, UniProt O00214); experiment: competitive fluorescence polarization assay, galectin-8N; settings: PBS
T3 construct: 4N (N-terminal domain) 4C (C-terminal domain), 7, 8N, 8C, 9N, and 9C; made in house
T3 sequence (O00214 19-152 limits assumed): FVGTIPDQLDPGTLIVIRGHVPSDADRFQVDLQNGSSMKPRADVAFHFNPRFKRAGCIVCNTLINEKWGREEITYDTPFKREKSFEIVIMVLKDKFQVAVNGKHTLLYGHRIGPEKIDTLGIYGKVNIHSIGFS
Text: as §1, §2

human galectin-3 = target: T4, human galectin-3 (Homo sapiens, UniProt P17931); experiment: competitive fluorescence polarization assay, galectin-3; settings: average and SEM, PBS
T4 construct: made in house; host or cells: vector pET3c (the same vector as galectin-7)
T4 sequence (P17931 whole entry): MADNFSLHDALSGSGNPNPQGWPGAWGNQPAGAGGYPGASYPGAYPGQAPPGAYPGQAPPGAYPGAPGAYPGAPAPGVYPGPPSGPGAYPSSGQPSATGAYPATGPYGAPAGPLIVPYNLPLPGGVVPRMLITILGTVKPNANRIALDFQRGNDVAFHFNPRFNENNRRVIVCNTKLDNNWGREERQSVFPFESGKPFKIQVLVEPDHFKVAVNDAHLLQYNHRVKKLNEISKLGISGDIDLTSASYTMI
Text: as §1, §2

human galectin-1 = target: T5, human galectin-1 (Homo sapiens, UniProt P09382); experiment: competitive fluorescence polarization assay, galectin-1; settings: for Kd: average and SEM of 4–8 single-triple point measurements, PBS
T5 construct: made in house
T5 sequence (P09382 whole entry): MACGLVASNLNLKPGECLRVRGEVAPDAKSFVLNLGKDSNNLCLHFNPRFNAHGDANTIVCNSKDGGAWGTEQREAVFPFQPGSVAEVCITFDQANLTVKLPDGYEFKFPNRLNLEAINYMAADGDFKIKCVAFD
Text: as §1, §2

[3] = target: T6, human galectin-4C (C-terminal domain) (Homo sapiens, UniProt P56470); experiment: competitive fluorescence polarization assay, galectin-4C; settings: PBS
T6 construct: 4N (N-terminal domain) 4C (C-terminal domain); made in house
T6 sequence (P56470 194-323 limits assumed): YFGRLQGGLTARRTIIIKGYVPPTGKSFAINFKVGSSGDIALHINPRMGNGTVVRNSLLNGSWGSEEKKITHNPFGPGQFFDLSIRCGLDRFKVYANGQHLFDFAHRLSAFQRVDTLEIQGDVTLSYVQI
Text: as §1, §2

[4] = target: T7, human galectin-8C (C-terminal domain) (Homo sapiens, UniProt O00214); experiment: competitive fluorescence polarization assay, galectin-8C; settings: PBS
T7 construct: 4N (N-terminal domain) 4C (C-terminal domain), 7, 8N, 8C, 9N, and 9C; made in house
T7 sequence (O00214 187-317 limits assumed): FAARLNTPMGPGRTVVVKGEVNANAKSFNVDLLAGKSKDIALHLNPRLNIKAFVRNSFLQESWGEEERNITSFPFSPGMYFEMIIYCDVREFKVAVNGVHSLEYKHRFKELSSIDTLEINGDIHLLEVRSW
Text: as §1, §2

[5] = target: T8, human galectin-4N (N-terminal domain) (Homo sapiens, UniProt P56470); experiment: competitive fluorescence polarization assay, galectin-4N; settings: for Kd: N-terminal domain, average and SEM, PBS
T8 construct: 4N (N-terminal domain) 4C (C-terminal domain); made in house
T8 sequence (P56470 19-150 limits assumed): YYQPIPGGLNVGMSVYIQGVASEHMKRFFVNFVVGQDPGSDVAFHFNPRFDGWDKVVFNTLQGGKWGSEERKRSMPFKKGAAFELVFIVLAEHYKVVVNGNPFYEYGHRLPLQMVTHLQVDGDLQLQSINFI
Text: as §3, §2

human galectin-2 = target: T9, human galectin-2 (Homo sapiens, UniProt P05162); experiment: competitive fluorescence polarization assay, galectin-2; settings: average and SEM, PBS
T9 construct: made in house
T9 sequence (P05162 1-132): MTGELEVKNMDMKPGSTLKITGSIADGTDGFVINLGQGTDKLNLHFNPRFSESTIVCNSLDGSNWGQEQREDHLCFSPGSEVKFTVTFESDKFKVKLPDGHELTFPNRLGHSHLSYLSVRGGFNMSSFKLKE
Text: as §3, §2

[6] = target: T10, human galectin-9N (N-terminal domain) (Homo sapiens, UniProt O00182); experiment: competitive fluorescence polarization assay, galectin-9N; settings: PBS
T10 construct: 4N (N-terminal domain) 4C (C-terminal domain), 7, 8N, 8C, 9N, and 9C; made in house
T10 sequence (O00182 17-148 limits assumed): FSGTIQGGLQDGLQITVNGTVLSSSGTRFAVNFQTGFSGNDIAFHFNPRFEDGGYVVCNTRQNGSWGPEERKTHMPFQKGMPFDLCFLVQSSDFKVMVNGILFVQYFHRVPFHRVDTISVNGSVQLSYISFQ
Text: as §3, §2

T1 sequence (O00182 227-355 limits assumed): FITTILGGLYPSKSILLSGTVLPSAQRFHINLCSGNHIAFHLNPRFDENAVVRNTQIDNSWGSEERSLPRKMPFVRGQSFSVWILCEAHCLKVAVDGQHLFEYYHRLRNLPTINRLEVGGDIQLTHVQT

SMILES | Kd ([1]; Table 1, average and SEM) [mM] | Kd (human galectin-7; Table 1) [mM] | Kd ([2]; Table 1, average and SEM) [mM] | Kd (human galectin-3; Table 1) [mM] | Kd (human galectin-1; Table 1) [mM] | Kd ([3]; Table 1, average and SEM) [mM] | Kd ([4]; Table 1, average and SEM) [mM] | Kd ([5]; Table 1) [mM] | Kd ([1]; Table 2, average and SEM) [mM] | Kd (human galectin-7; Table 2) [mM] | Kd ([2]; Table 2, average and SEM) [mM] | Kd (human galectin-3; Table 2) [mM] | Kd (human galectin-1; Table 2) [mM] | Kd (human galectin-2; Table 2) [mM] | Kd ([3]; Table 2, average and SEM) [mM] | Kd ([4]; Table 2, average and SEM) [mM] | Kd ([6]; Table 2, average and SEM) [mM] | Kd ([5]; Table 2) [mM] | further results
CO[C@@H]1O[C@H](CO)[C@H](O)[C@@H](CNP(=O)(Oc2ccccc2)Oc2ccccc2)[C@H]1O [Compound 8, Methyl 3-Deoxy-3-C-(Diphenylphosphonamidomethyl)-β-D-Galactopyranoside] | > 5 | > 4 | > 4 | > 4 | > 10 | > 4 | > 4 | > 4 |  |  |  |  |  |  |  |  |  |  | 
CO[C@@H]1O[C@H](CO)[C@H](O)[C@H](CNC(=O)Nc2cccc(F)c2)[C@H]1O [Compound 5, Methyl 3-Deoxy-3-C-(3-Fluorophenylureido)Methyl-β-D-Galactopyranoside] | > 4 | > 4 | > 4 | > 4 | > 4 | > 4 | > 4 | > 4 |  |  |  |  |  |  |  |  |  |  | Kd (human galectin-2; Table 1): > 4 mM; Kd ([6]; Table 1, average and SEM): > 4 mM
CO[C@@H]1O[C@H](CO)[C@H](O)[C@@H](CNS(=O)(=O)c2ccccc2)[C@H]1O [Compound 6, Methyl 3-Deoxy-3-C-(Phenylsufonamido)Methyl-β-D-Galactopyranoside] | > 4 | > 4 | > 4 | > 4 | > 10 | > 4 | > 4 | > 4 |  |  |  |  |  |  |  |  |  |  | 
CO[C@@H]1O[C@H](CO)[C@H](O)[C@@H](O)[C@H]1O [Compound 9, Methyl β-D-Gulopyranoside] |  |  |  |  |  |  |  |  | > 4 | > 4 |  |  |  | 10 ± 1.5 |  |  | > 4 |  | 
CO[C@@H]1O[C@H](CO)[C@H](O)[C@@H](NC(=O)c2ccccc2)[C@H]1O [Compound 10, Methyl 3-Benzamido-3-Deoxy-β-D-Gulopyranoside] |  |  |  |  |  |  |  |  | > 4 |  | > 4 | > 4 | > 4 | > 4 | > 4 | > 4 | > 4 | 1.3 ± 0.2 | binding to galectin-1 (in words) (human galectin-1; under the assay conditions): no binding; binding to galectin-4N (in words) [5]: improved binding
COC[C@H]1[C@@H](O)[C@@H](CO)O[C@@H](OC)[C@@H]1O [Compound 3, Methyl 3-Deoxy-3-C-Methoxymethyl-β-D-Galactopyranoside] |  |  | > 4 | > 4 | > 4 |  | > 4 |  |  |  |  |  |  |  |  |  |  |  | 

Further lines, with some results ahead:

Kd ([1]; Table 1, average and SEM) [mM] | Kd (human galectin-7; Table 1) [mM] | Kd ([2]; Table 1, average and SEM) [mM] | Kd (human galectin-3; Table 1) [mM] | Kd (human galectin-1; Table 1) [mM] | Kd ([3]; Table 1, average and SEM) [mM] | Kd ([4]; Table 1, average and SEM) [mM] | Kd ([5]; Table 1) [mM] | Kd ([1]; Table 2, average and SEM) [mM] | Kd (human galectin-7; Table 2) [mM] | Kd ([2]; Table 2, average and SEM) [mM] | Kd (human galectin-3; Table 2) [mM] | Kd (human galectin-1; Table 2) [mM] | Kd (human galectin-2; Table 2) [mM] | Kd ([3]; Table 2, average and SEM) [mM] | Kd ([4]; Table 2, average and SEM) [mM] | Kd ([6]; Table 2, average and SEM) [mM] | Kd ([5]; Table 2) [mM] | SMILES | further results
 |  |  |  |  |  |  |  | > 4 | > 4 | > 4 | > 4 | 2.5 ± 0.4 | > 4 | > 4 | > 4 | > 4 | > 4 | CO[C@@H]1O[C@H](CO)[C@H](O)[C@H](CNC(=O)c2cc(F)c(F)c(F)c2)[C@H]1O [Compound 7f, Methyl 3-Deoxy-3-C-(3,4,5-Trifluorobenzamidomethyl)-β-D-Galactopyranoside] | 
 |  |  |  |  |  |  |  | > 4 | > 4 | > 4 | > 4 | 1.5 ± 0.08 | > 4 | > 4 | 2.7 ± 0.5 | > 4 | 1.9 ± 0.05 | CO[C@@H]1O[C@H](CO)[C@H](O)[C@@H](CNC(C)=O)[C@H]1O [Compound 7b, Methyl 3-Deoxy-3-C-Acetamidomethyl-β-D-Gulopyranoside] | 
 |  |  |  |  |  |  |  | > 4 | > 4 | > 4 | 1.6 ± 0.03 | 1.7 ± 0.06 | > 4 | > 4 | > 4 | > 4 | 1.7 ± 0.07 | CO[C@@H]1O[C@H](CO)[C@H](O)[C@H](CNC(=O)c2ccc(F)cc2)[C@H]1O [Compound 7e, Methyl 3-Deoxy-3-C-(4-Fluorobenzamidomethyl)-β-D-Galactopyranoside] | 
 |  |  |  |  |  |  |  | > 4 | > 4 | > 4 | > 4 | 2.3 ± 0.4 | > 4 | > 4 | > 4 | > 4 | > 4 | CO[C@@H]1O[C@H](CO)[C@H](O)[C@H](CNC(=O)c2ccc(C)cc2)[C@H]1O [Compound 7i, Methyl 3-Deoxy-3-C-(p-Toluamidomethyl)-β-D-Galactopyranoside] | 
> 4 | > 4 | > 4 | > 4 | 1.8 ± 0.15 | > 4 | > 4 | > 4 |  |  |  |  |  |  |  |  |  |  | CO[C@@H]1O[C@H](CO)[C@H](O)[C@@H](CNC(=O)c2ccccc2)[C@H]1O [Compound 7a, Methyl 3-Deoxy-3-C-Benzamidomethyl-β-D-Gulopyranoside] | Kd (human galectin-2; Table 1): > 4 mM
> 4 | > 4 | > 4 | > 4 | 1.3 ± 0.15 |  | 3.7 ± 0.02 | > 4 |  |  |  |  |  |  |  |  |  |  | CO[C@@H]1O[C@H](CO)[C@H](O)[C@@H](CO)[C@H]1O [Compound 1a, Methyl 3-Deoxy-3-C-Hydroxymethyl-β-D-Gulopyranoside] | fold better affinity for galectin-1 than reference methyl β-D-galactopyranoside 32 (human galectin-1; ratio of Kd values): 7 fold; Kd ([6]; Table 1, average and SEM): > 4 mM
